Assay results published in patent publication US10364245B2 (CHIESI FARMACEUTICI S.p.A., priority 2017, dated 2019).
Structures can show the parent of a compound that is named as a salt.

What was measured:
[1] = test system: Peripheral Blood Mononuclear Cells (PBMCs), TNFα release; assay: LPS-stimulated PBMC TNFα release assay; type: cell-based; settings: human PBMC, LPS (10 ng/ml), 18 h, compound 1 h before LPS; read-out: LPS-stimulated PBMC TNFα release inhibition
Method in brief: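 Human PBMCs from healthy donors, serum-starved 3 h, then pre-incubated 1 h at 37 °C with compound in 1% FBS medium before LPS (10 ng/ml) for 18 h. Supernatant TNFα measured by MSD; IC50 from dose-response as % inhibition of control, at least three experiments.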

[2] = biological target: T1, p38 alpha (Homo sapiens, UniProt Q16539); assay: P38 alpha enzyme inhibition assay (Alphascreen kinase activity assay); type: biochemical; settings: 100 pM p38 alpha, 2 hours preincubation at 25° C., 250 μM ATP, ATF-2 fusion protein; read-out: p38α inhibition
T1 construct: purchased Invitrogen PV3304
T1 sequence (Q16539 whole entry, the tested form may be a part): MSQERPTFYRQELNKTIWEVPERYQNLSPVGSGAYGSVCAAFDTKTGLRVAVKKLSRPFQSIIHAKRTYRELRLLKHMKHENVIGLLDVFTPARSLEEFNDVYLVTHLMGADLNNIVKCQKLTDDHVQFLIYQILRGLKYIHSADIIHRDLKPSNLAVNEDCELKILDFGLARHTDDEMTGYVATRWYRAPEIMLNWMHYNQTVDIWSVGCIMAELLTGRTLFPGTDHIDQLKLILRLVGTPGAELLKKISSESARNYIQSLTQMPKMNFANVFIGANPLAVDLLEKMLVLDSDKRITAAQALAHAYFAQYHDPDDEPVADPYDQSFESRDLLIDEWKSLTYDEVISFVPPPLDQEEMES
Method in brief: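 100 pM p38 alpha preincubated 2 h at 25 °C with compound and 0.3 μg/ml ATF-2 fusion substrate (HEPES pH 7.5, MgCl2, 1% DMSO). Reaction started with 250 μM ATP, run 1 h at 25 °C, stopped with EDTA; phospho-ATF2 detected by AlphaScreen luminescence. IC50 from concentration-response curves.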

Compound	IC50 [1]	IC50 [2]
CCN(CC)c1nnc2ccc(O[C@@H]3CC[C@H](NC(=O)Nc4cc(C(C)(C)C)nc(C(=O)NCC(C)(C)N(C)C)n4)c4ccccc43)cn12 [Example 143, 4-(tert-butyl)-6-(3-((1S,4R)-4-((3-(diethylamino)-[1,2,4]triazolo[4,3-a]pyridin-6-yl)oxy)-1,2,3,4-tetrahydronaphthalen-1-yl)ureido)-N-(2-(dimethylamino)-2-methylpropyl)pyrimidine-2-carboxamide]	1 to 5 nM	< 1 nM
COC(C)(C)c1nnc2ccc(O[C@@H]3CC[C@H](NC(=O)Nc4cc(C(C)(C)C)nc(C(=O)NCCN5CCCOCC5)n4)c4ccccc43)cn12 [Example 12, N-(2-(1,4-Oxazepan-4-yl)ethyl)-4-(tert-butyl)-6-(3-((1S,4R)-4-((3-(2-methoxypropan-2-yl)-[1,2,4]triazolo[4,3-a]pyridin-6-yl)oxy)-1,2,3,4-tetrahydronaphthalen-1-yl)ureido)pyrimidine-2-carboxamide]	1 to 5 nM	1 to 10 nM
COC(C)(C)c1nnc2ccc(O[C@@H]3CC[C@H](NC(=O)Nc4cc(C(C)(C)C)nc(CO)n4)c4ccccc43)cn12 [Example 13, 1-(6-(tert-Butyl)-2-(hydroxymethyl)pyrimidin-4-yl)-3-((1S,4R)-4-((3-(2-methoxypropan-2-yl)-[1,2,4]triazolo[4,3-a]pyridine-6-yl)oxy)-1,2,3,4-tetrahydronaphthalene-1-yl)urea]	1 to 5 nM	< 1 nM
CC(C)(C)c1cc(NC(=O)N[C@H]2CC[C@@H](Oc3ccc4nnc(C(C)(C)C)n4c3)c3ccccc32)cc(C(=O)NCCN2CCC(O)CC2)n1 [Example 9, 6-(tert-Butyl)-4-(3-((1S,4R)-4-((3-(tert-butyl)-[1,2,4]triazolo[4,3-a]pyridin-6-yl)oxy]-1,2,3,4-tetrahydronaphthalen-1-yl}ureido)-N-(2-(4-hydroxypiperidin-1-yl)ethyl)picolinamide]	1 to 5 nM	< 1 nM
CC[C@H](C)c1nnc2ccc(O[C@@H]3CC[C@H](NC(=O)Nc4cc(C(C)(C)C)nc(C(=O)NCCN(C)CCOC)n4)c4ccccc43)cn12 [Example 105, 4-(tert-butyl)-6-(3-((1S,4R)-4-((3-((S)-sec-butyl)-[1,2,4]triazolo[4,3-a]pyridin-6-yl)oxy)-1,2,3,4-tetrahydronaphthalen-1-yl)ureido)-N-(2-((2-methoxyethyl)(methyl)-amino)ethyl)pyrimidine-2-carboxamide]	1 to 5 nM	< 1 nM
CC(C)(C)c1cc(NC(=O)N[C@H]2CC[C@@H](Oc3ccc4nnc(C5(C)CCCC5)n4c3)c3ccccc32)nc(C(=O)NCCN2CCCOCC2)n1 [Example 182, N-(2-(1,4-oxazepan-4-yl)ethyl)-4-(tert-butyl)-6-(3-((1S,4R)-4-((3-(1-methylcyclopentyl)-[1,2,4]triazolo[4,3-a]pyridin-6-yl)oxy)-1,2,3,4-tetrahydronaphthalen-1-yl)ureido)pyrimidine-2-carboxamide]	< 1 nM	< 1 nM
CN(C)CCNC(=O)c1cc(NC(=O)N[C@H]2CC[C@@H](Oc3ccc4nnc([C@]5(C)CCCN5C)n4c3)c3ccccc32)cc(C(C)(C)C)n1 [Example 62, 6-(tert-Butyl)-N-(2-(dimethylamino)ethyl)-4-(3-((1S,4R)-4-((3-((S)-1,2-dimethylpyrrolidin-2-yl)-[1,2,4]triazolo[4,3-a]pyridin-6-yl)oxy)-1,2,3,4-tetrahydronaphthalen-1-yl)ureido)picolinamide]	> 5 nM	< 1 nM
CC(C)(C)c1cc(NC(=O)N[C@H]2CC[C@@H](Oc3ccc4nnc(C(C)(C)C)n4c3)c3ccccc32)nc(C(=O)NCCN2CC[C@H](O)C2)n1 [Example 94, 4-(tert-butyl)-6-(3-((1S,4R)-4-((3-(tert-butyl)-[1,2,4]triazolo[4,3-a]pyridin-6-yl)oxy)-1,2,3,4-tetrahydronaphthalen-1-yl)ureido)-N-(2-((S)-3-hydroxypyrrolidin-1-yl)ethyl)pyrimidine-2-carboxamide]	> 5 nM	< 1 nM
CN(C)CCNC(=O)c1nc(NC(=O)N[C@H]2CC[C@@H](Oc3ccc4nnc(CC(C)(C)C)n4c3)c3ccccc32)cc(C(C)(C)C)n1 [Example 59, 4-(tert-Butyl)-N-(2-(dimethylamino)ethyl)-6-(3-((1S,4R)-4-((3-neopentyl-[1,2,4]triazolo[4,3-a]pyridin-6-yl)oxy)-1,2,3,4-tetrahydronaphthalen-1-yl)ureido)pyrimidine-2-carboxamide]	> 5 nM	1 to 10 nM
CN(C)CCNC(=O)c1nc(NC(=O)N[C@H]2CC[C@@H](Oc3ccc4nnc(C5(C)COC5)n4c3)c3ccccc32)cc(C(C)(C)C)n1 [Example 55, 4-(tert-Butyl)-N-(2-(dimethylamino)ethyl)-6-(3-((1S,4R)-4-((3-(3-methyloxetan-3-yl)-[1,2,4]triazolo[4,3-a]pyridin-6-yl)oxy)-1,2,3,4-tetrahydronaphthalen-1-yl)ureido)pyrimidine-2-carboxamide]	> 5 nM	1 to 10 nM
COCCN(CCOC)Cc1nc(NC(=O)N[C@H]2CC[C@@H](Oc3ccc4nnc(C(C)(C)C)n4c3)c3ccccc32)cc(C(C)(C)C)n1 [Example 86, 1-(2-((bis(2-methoxyethyl)amino)methyl)-6-(tert-butyl)pyrimidin-4-yl)-3-((1S,4R)-4-((3-(tert-butyl)-[1,2,4]triazolo[4,3-a]pyridin-6-yl)oxy)-1,2,3,4-tetrahydronaphthalen-1-yl)urea]	> 5 nM	1 to 10 nM
CN(C)C1(CNC(=O)c2nc(NC(=O)N[C@H]3CC[C@@H](Oc4ccc5nnc(C(C)(C)C)n5c4)c4ccccc43)cc(C(C)(C)C)n2)CC1 [Example 159, 4-(tert-butyl)-6-(3-((1S,4R)-4-((3-(tert-butyl)-[1,2,4]triazolo[4,3-a]pyridin-6-yl)oxy)-1,2,3,4-tetrahydronaphthalen-1-yl)ureido)-N-((1-(dimethylamino)-cyclopropyl)methyl)-pyrimidine-2-carboxamide]	> 5 nM	1 to 10 nM
CN1CCN(C(C)(C)c2nnc3ccc(O[C@@H]4CC[C@H](NC(=O)Nc5cc(C(=O)NCCO)nc(C(C)(C)C)c5)c5ccccc54)cn23)CC1 [Example 200, 6-(tert-Butyl)-N-(2-hydroxyethyl)-4-(3-((1S,4R)-4-((3-(2-(4-methylpiperazin-1-yl)propan-2-yl)-[1,2,4]triazolo[4,3-a]pyridin-6-yl)oxy)-1,2,3,4-tetrahydronaphthalen-1-yl)ureido)picolinamide formate salt]	> 5 nM	< 1 nM
CCOC(=O)c1nc(NC(=O)N[C@H]2CC[C@@H](Oc3ccc4nnc([C@]5(C)CCCN5C)n4c3)c3ccccc32)cc(C(C)(C)C)n1 [Example 36, Ethyl 4-(tert-butyl)-6-(3-((1S,4R)-4-((3-((S)-1,2-dimethylpyrrolidin-2-yl)-[1,2,4]triazolo[4,3-a]pyridin-6-yl)oxy)-1,2,3,4-tetrahydronaphthalen-1-yl)ureido)pyrimidine-2-carboxylate]	< 1 nM	1 to 10 nM
CC(C)(C)c1cc(NC(=O)N[C@H]2CC[C@@H](Oc3ccc4nnc(C5CCCC5)n4c3)c3ccccc32)nc(C(=O)NCCO)n1 [Example 64]	> 5 nM	< 1 nM
CN1CCN(C(C)(C)c2nnc3ccc(O[C@@H]4CC[C@H](NC(=O)Nc5cc(C(C)(C)C)nc(C(=O)NCCO)n5)c5ccccc54)cn23)CC1 [Example 139, 4-(tert-butyl)-N-(2-hydroxyethyl)-6-(3-((1S,4R)-4-((3-(2-(4-methylpiperazin-1-yl)propan-2-yl)-[1,2,4]triazolo[4,3-a]pyridin-6-yl)oxy)-1,2,3,4-tetrahydronaphthalen-1-yl)ureido)pyrimidine-2-carboxamide]	> 5 nM	1 to 10 nM
CC[C@H](C)c1nnc2ccc(O[C@@H]3CC[C@H](NC(=O)Nc4cc(C(C)(C)C)nc(C(=O)NCC(C)(C)N(C)C)n4)c4ccccc43)cn12 [Example 8, 4-(tert-Butyl)-6-(3-((1S,4R)-4-((3-((S)-sec-butyl)-[1,2,4]triazolo[4,3-a]pyridin-6-yl)oxy)-1,2,3,4-tetrahydronaphthalen-1-yl)ureido)-N-(2-(dimethylamino)-2-methylpropyl)pyrimidine-2-carboxamide]	1 to 5 nM	< 1 nM
CN(C)CCOCCNC(=O)c1nc(NC(=O)N[C@H]2CC[C@@H](Oc3ccc4nnc(C(C)(C)C)n4c3)c3ccccc32)cc(C(C)(C)C)n1 [Example 130, 4-(tert-butyl)-6-(3-((1S,4R)-4-((3-(tert-butyl)-[1,2,4]triazolo[4,3-a]pyridin-6-yl)oxy)-1,2,3,4-tetrahydronaphthalen-1-yl)ureido)-N-(2-(2-(dimethylamino)ethoxy)-ethyl)pyrimidine-2-carboxamide]	> 5 nM	< 1 nM
CC(C)(C)c1cc(NC(=O)N[C@H]2CC[C@@H](Oc3ccc4nnc(C(C)(C)C)n4c3)c3ccccc32)cc(C(=O)NCCN2CC(O)C2)n1 [Example 197, 6-(tert-butyl)-4-(3-((1S,4R)-4-((3-(tert-butyl)-[1,2,4]triazolo[4,3-a]pyridin-6-yl)oxy)-1,2,3,4-tetrahydronaphthalen-1-yl)ureido)-N-(2-(3-hydroxyazetidin-1-yl)ethyl)picolinamide]	> 5 nM	< 1 nM
